Read-outs that look alike come from different tables or passages of the source. Where no end group is shown, it is not given here. [ ]: non-standard residue; d: D form.
Tests used:
M. avium = assay: MIC against M. avium; type: cell-based, Mycobacterium avium; conditions: M. avium (ATCC 700898); CAAT media
M. scrofulaceum = assay: MIC against M. scrofulaceum; type: cell-based, Mycobacterium scrofulaceum; conditions: M. scrofulaceum (ATCC 19981); CAAT media
M. tuberculosis = type: cell-based, Mycobacterium tuberculosis
M. abscessus = assay: MIC against MDR M. abscessus isolates; type: cell-based, Mycobacterium abscessus; conditions: 7 days, AST media (CAAT)
A. xylosoxidans [1] = type: cell-based, Achromobacter xylosoxidans
Method in brief: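 Broth microdilution per CLSI, with Mueller Hinton Broth replaced by CAA medium (with or without NaCl) or CAA plus 2.5% human serum. MIC taken as the lowest peptide concentration suppressing at least 80% of bacterial growth versus control.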

A. ruhlandii = assay: MIC by broth microdilution against A. ruhlandii; type: cell-based, Achromobacter ruhlandii; conditions: A. ruhlandii isolates
Method in brief: (§1)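 CLSI broth microdilution, with Mueller Hinton Broth replaced by CAA media (with or without NaCl) or CAA plus 2.5% human serum. MIC taken as the lowest peptide concentration suppressing at least 80% of growth relative to control.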

A. dolens [2] = assay: MIC by broth microdilution against A. dolens; type: cell-based, Achromobacter dolens; conditions: A. dolens isolates
Method in brief: as §1

B. cenocepacia [3] = assay: MIC by broth microdilution against B. cenocepacia; type: cell-based, Burkholderia cenocepacia; conditions: B. cenocepacia isolates
Method in brief: as §1

P. aeruginosa [4] = assay: Time-kill assay in cystic fibrosis patient sputum, P. aeruginosa; type: cell-based, Pseudomonas aeruginosa
Method in brief: (§2)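 Time-kill assay run in unfiltered pooled sputum from 5 cystic fibrosis patients, with t=0 plating for baseline CFU and untreated controls. Activity also measured without sputum.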

A. xylosoxidans [5] = assay: Time-kill assay in cystic fibrosis patient sputum, A. xylosoxidans; type: cell-based, Achromobacter xylosoxidans
Method in brief: as §2

P. aeruginosa [6] = assay: Serial passage resistance development study, P. aeruginosa; type: cell-based, Pseudomonas aeruginosa; conditions: P. aeruginosa strain CFS 1292, Day 28
A. dolens [7] = type: cell-based, Achromobacter dolens
Protocol: (§3) The MBEC (after 2-hour treatments) was determined as described in Jones and Wozniak, PsI Produced by Mucoid Pseudomonas aeruginosa Contributes to the Establishment of Biofilms and Immune Evasion, Am. Soc. Microbiol. 2017, 8(3):e00864-17. Meropenem and tobramycin were included as controls and were both poorly active, with MBEC90 values of >256 μg/mL (data not shown).

B. cenocepacia [8] = type: cell-based, Burkholderia cenocepacia
Protocol: as §3

P. aeruginosa [9] = test system: P. aeruginosa

“M[dR]L[dK]MA[dR][dR][dR]Y[dR]LP[dR][dR][dR]S[dR][dR]LFS[dR]TAL[dR]MHP[dR]N[dR]L[dR][dR]IM[dR]GGI[dR]F [AM2]” showed an MIC (M. avium) of 1 Tg/mL, an MIC (M. scrofulaceum) of 16 µg/mL and an MIC (M. tuberculosis; M. tuberculosis (ATCC 35817), (ADC, T) media) of 8 µg/mL. For the same substance, the MIC (M. tuberculosis; M. tuberculosis strain TN8109_LB (MDR), 7H9 broth, 20 days) was 2 µg/mL, the MIC (M. tuberculosis; M. tuberculosis strain TN8562_M33 (susc), 7H9 broth, 20 days) was 2 µg/mL and the MIC (M. tuberculosis; M. tuberculosis strain TN10525_LL (MDR), 7H9 broth, 20 days) was 8 µg/mL. The MIC (M. tuberculosis; M. tuberculosis strain TN10571_KY (MDR), 7H9 broth, 20 days) was 4 µg/mL, the MIC (M. tuberculosis; M. tuberculosis strain TN12657_KQ15 (IS), 7H9 broth, 20 days) was 4 µg/mL and the MIC (M. tuberculosis; M. tuberculosis strain TN13923_HD17 (susc), 7H9 broth, 20 days) was 8 µg/mL. For the same substance, the MIC (M. tuberculosis; M. tuberculosis strain TN18349_W738 (susc), 7H9 broth, 20 days) was 2 µg/mL, the MIC (M. tuberculosis; M. tuberculosis strain TN34503_001 (susc), 7H9 broth, 20 days) was 8 µg/mL and the MIC (M. abscessus; M. abscessus strain BK51402) was 2 µg/mL. The MIC (M. abscessus; M. abscessus strain BK51403 (ATCC 19977)) was 4 µg/mL, the MIC (M. abscessus; M. abscessus strain BK51408) was 8 µg/mL and the MIC (M. abscessus; M. abscessus strain BK55096) was 4 µg/mL. For the same substance, the MIC (M. abscessus; M. abscessus strain BK55691) was 1 µg/mL, the MIC (M. abscessus; M. abscessus strain BK58156) was 1 µg/mL and the MIC50 (A. xylosoxidans [1]; A. xylosoxidans isolates) was 2 µg/mL. For the same substance, the MIC90 (A. xylosoxidans [1]; A. xylosoxidans isolates) was 64 µg/mL, the MIC (A. xylosoxidans [1]; A. xylosoxidans test organism of the sputum time-kill assay) was “AM2 (MIC = 1)” and the MIC50 (A. ruhlandii) was 2 µg/mL. It also gave an MIC90 (A. ruhlandii) of 16 µg/mL, an MIC50 (A. dolens [2]) of 4 µg/mL and an MIC90 (A. dolens [2]) of 8 µg/mL. The “MIC Range” value (A. dolens [2]; in µg/mL) was 0.016-16, the MIC50 (B. cenocepacia [3]) was over 128 µg/mL and the MIC90 (B. cenocepacia [3]) was over 128 µg/mL. For the same substance, the “effect of sputum on antibacterial activity” value (P. aeruginosa [4]; 10% CF sputum vs no sputum) was “not inhibited”, the “Log10 CFU/mL of sputum” value (P. aeruginosa [4]; absence of sputum, 1 hr) was 2.3 Log10 CFU/mL of sputum and the “Log10 CFU/mL of sputum” value (P. aeruginosa [4]; absence of sputum, 3 hr) was 2.3 Log10 CFU/mL of sputum. For the same substance, the “Log10 CFU/mL of sputum” value (P. aeruginosa [4]; absence of sputum, 24 hr) was 2.3 Log10 CFU/mL of sputum, the “Log10 CFU/mL of sputum” value (P. aeruginosa [4]; presence of 10% sputum, 1 hr) was 2.3 Log10 CFU/mL of sputum and the “Log10 CFU/mL of sputum” value (P. aeruginosa [4]; presence of 10% sputum, 3 hr) was 2.3 Log10 CFU/mL of sputum. For the same substance, the “Log10 CFU/mL of sputum” value (P. aeruginosa [4]; presence of 10% sputum, 24 hr) was 2.3 Log10 CFU/mL of sputum, the “killing by 1 hour, maintained by 24 hours” value (P. aeruginosa [4]; time-kill) was “complete killing” and the “effect of sputum on antibacterial activity” value (A. xylosoxidans [5]; 10% CF sputum vs no sputum) was “none of GN370, AM1, AM2, and AM3 was inhibited”. For the same substance, the “Log10 CFU/mL of sputum” value (A. xylosoxidans [5]; absence of sputum, 1 hr) was 3.3 Log10 CFU/mL of sputum, the “Log10 CFU/mL of sputum” value (A. xylosoxidans [5]; absence of sputum, 3 hr) was 2.3 Log10 CFU/mL of sputum and the “Log10 CFU/mL of sputum” value (A. xylosoxidans [5]; absence of sputum, 24 hr) was 2.3 Log10 CFU/mL of sputum. The “Log10 CFU/mL of sputum” value (A. xylosoxidans [5]; presence of 10% sputum, 1 hr) was 2.3 Log10 CFU/mL of sputum, the “Log10 CFU/mL of sputum” value (A. xylosoxidans [5]; presence of 10% sputum, 3 hr) was 2.3 Log10 CFU/mL of sputum and the “Log10 CFU/mL of sputum” value (A. xylosoxidans [5]; presence of 10% sputum, 24 hr) was 2.3 Log10 CFU/mL of sputum. The “killing by 1 hour, maintained at 24 hours” value (A. xylosoxidans [5]; time-kill) was “complete killing”, the “change in MIC over serial passage” value (P. aeruginosa [6]) was “no significant changes” and the MBEC50 (A. dolens [7]) was 4 µg/mL. For the same substance, the MBEC90 (A. dolens [7]) was 8 µg/mL, the “MBEC Range” value (A. dolens [7]) was 1 to 8 µg/mL and the MBEC50 (B. cenocepacia [8]) was 16 µg/mL. For the same substance, the MBEC90 (B. cenocepacia [8]) was 32 µg/mL, the “MBEC Range” value (B. cenocepacia [8]) was 2 to 32 µg/mL and the MIC50 (S. maltophilia; S. maltophilia isolates) was 0.5 µg/mL. For the same substance, the MIC90 (S. maltophilia; S. maltophilia isolates) was 1 µg/mL, the “MIC Range” value (S. maltophilia; S. maltophilia isolates, in µg/mL) was 0.03-2 and the MIC (S. maltophilia; S. maltophilia test organism of the sputum time-kill assay) was “AM2 (MIC = 0.5)”. For the same substance, the “activity (MIC) against S. maltophilia isolates” value (S. maltophilia; all tested isolates, Tables 8-12) was “highly active”, the MBEC50 (P. aeruginosa [9]) was 0.25 µg/mL and the MBEC90 (P. aeruginosa [9]) was 1 µg/mL. For the same substance, the “MBEC Range” value (P. aeruginosa [9]) was 0.016 to 2 µg/mL and the “antibiofilm activity (MBEC) against P. aeruginosa” value (P. aeruginosa [9]; 2-hour treatments) was “highly active”.
